Columns and labels:
[1] = system: HER2-positive breast cancer cell line SKBR3; experiment: Cell viability assay, SKBR3; format: cell-based; details: SKBR3 (sensitive to Trastuzumab); 72 hours
[2] = system: HER2-positive breast cancer cell line BT474; experiment: MTS cell viability assay, BT474; format: cell-based; details: 72 hours
Method: In the human breast cancer cell lines MDA-MB-231 and JIMT-1, thiobenzimidazole derivatives of Chemical Formulas 1-1, 1-2, 1-3, 1-5, 1-6, 1-7, 1-8, 1-1-11, 1-12, 1-13, 1-14, 1-15, 1-16, 1-17, 1-19, 1-20, 1-21, and 1-22 were treated at various concentrations of 0, 0.5, 1, and 5 μM for 72 hours, respectively, and then cell viability was measured by an MTS assay. In the MTS assay, the cells were attached to a 96 well plate for 24 hours, treated with the thiobenzimidazole derivatives for 72 hours, and then developed with MTS (3-(4,5-dimethylthiazol-2-yl)-5-(3-carboxymethoxyphenyl)-2-(4-sulfophenyl)-2H-tetrazolium) for 4 hours, and then absorbance was measured at 490 nm using a Spectramax Plus384 microplate analyzer. […] The HER2-positive breast cancer cell line BT474 sensitive to Trastuzumab and the HER2-positive breast cancer cell line JIMT-1 resistant to Trastuzumab were treated with the thiobenzimidazole derivative of Chemical Formula 1-3 prepared above and its hydrochloride (Compound 1-23) at the same concentrations of […], 0.1, 0.5, 1, 5, and 10 μM for 72 hours, and then cell viability and IC50 were measured by an MTS assay.

[3] = system: HER2-positive breast cancer cell line JIMT-1; experiment: MTS cell viability assay, JIMT-1; format: cell-based, human; details: 72 hours
Method: A human triple-negative breast cancer (TNBC) cell line MDA-MB-231 (Cell seeding numbers: 1(M231)×10^4 cells/wells (confluency ≥25%) and an HER2-positive breast cancer (HER2+BC) cell line JIMT-1 (Cell seeding numbers: 1.2 (JIMT)×10^4 cells/wells (confluency ≥25%) were used in the experiment.
The cell lines were cultured in a Dulbecco's modified Eagle's medium (DMEM) containing 10% fetal bovine serum (FBS), streptomycin-penicillin (100 U/mL) and Fungizone (0.625 μg/mL) in an environment of 5% CO2 and 37° C., respectively.
In the human breast cancer cell lines MDA-MB-231 and JIMT-1, thiobenzimidazole derivatives of Chemical Formulas 1-1, 1-2, 1-3, 1-5, 1-6, 1-7, 1-8, 1-1-11, 1-12, 1-13, 1-14, 1-15, 1-16, 1-17, 1-19, 1-20, 1-21, and 1-22 were treated at various concentrations of 0, 0.5, 1, and 5 μM for 72 hours, respectively, and then cell viability was measured by an MTS assay. In the MTS assay, the cells were attached to a 96 well plate for 24 hours, treated with the thiobenzimidazole derivatives for 72 hours, and then developed with MTS (3-(4,5-dimethylthiazol-2-yl)-5-(3-carboxymethoxyphenyl)-2-(4-sulfophenyl)-2H-tetrazolium) for 4 hours, and then absorbance was measured at 490 nm using a Spectramax Plus384 microplate analyzer. […]

SKBR3 cell line = experiment: DNA content analysis by flow cytometry (PI), SKBR3; format: cell-based; details: 0.1, 0.25 and 0.5 μM for 72 hours
Method: (§1) The degree of apoptosis of cancer cells induced by the thiobenzimidazole derivative of Chemical Formula 1-3 was measured through DNA content analysis using a flow cytometry. The SKBR3, BT474 and JIMT-1 cell lines were treated with a control (DMSO) and the derivative of Chemical Formula 1-3 at concentrations of 0.1, 0.25 and 0.5 μM for 72 hours, and then the cells were harvested, immobilized with 95% ethanol containing 0.5% Tween-20 for 24 hours, and then stained with propidium iodide (PI, 50 μg/mL) and RNase (50 μg/mL) for 30 minutes. Thereafter, the degree of apoptosis of cancer cells was analyzed using a flow cytometer.
(§2) The result of such apoptosis was shown on the cell cycle as a Sub G1 site, and the ratio of Sub G1 was expressed numerically and shown in FIG. 8.

cancer cells = experiment: Annexin V/PI staining; format: cell-based; details: 0.1, 0.25, and 0.5 μM for 72 hours
Method: In addition, in order to confirm the apoptosis-inducing effect of the derivative of Chemical Formula 1-3, the control (DMSO) and the derivative of Chemical Formula 1-3 were treated at concentrations of 0.1, 0.25, and 0.5 μM for 72 hours, and then the degree of apoptosis was confirmed by Annexin V/PI staining.

JIMT-1 cell line = experiment: DNA content analysis by flow cytometry (PI), JIMT-1; format: cell-based, human; details: 0.1, 0.25 and 0.5 μM for 72 hours
Method: as §1, §2

BT474 cell line = experiment: DNA content analysis by flow cytometry (PI), BT474; format: cell-based; details: 0.1, 0.25 and 0.5 μM for 72 hours
Method: as §1, §2

| IC50 ([2]; Homo sapiens, BT-474, BT474, MTS) [nM] | IC50 ([3]; Homo sapiens, JIMT-1, MTS) [nM] | melting point [°C] | SMILES | inhibitory effect on cell proliferation [1] | inhibitory effect on cell proliferation ([2]; BT474 (sensitive to Trastuzumab)) | inhibitory effect on cell proliferation ([3]; JIMT-1 (resistant to Trastuzumab)) | G2/M phase cell cycle arrest (SKBR3 cell line) | apoptosis (Sub-G1 population) (SKBR3 cell line) | early and late apoptosis (Annexin V/PI) (cancer cells) | G2/M phase cell cycle arrest (JIMT-1 cell line) | apoptosis (Sub-G1 population) (JIMT-1 cell line) | G2/M phase cell cycle arrest (BT474 cell line) | apoptosis (Sub-G1 population) (BT474 cell line) |
| --- | --- | --- | --- | --- | --- | --- | --- | --- | --- | --- | --- | --- | --- |
| 2180 | 448 | – | COC(=O)Nc1nc2cc(Sc3ccc(N4CCN(C)CC4)cc3)ccc2[nH]1 [Chemical Formula 1-3, methyl (5-((4-(4-methylpiperazin-1-yl)phenyl)thio)-1H-benzo[d]imidazol-2-yl) carbamate] | inhibitory effect on cell proliferation was exhibited | inhibitory effect on cell proliferation was exhibited | inhibitory effect on cell proliferation was exhibited | arrested the G2/M phase cell cycle | significantly induced apoptosis (Sub-G1 population) | early and late apoptosis were effectively induced in a concentration-dependent manner | arrested the G2/M phase cell cycle | significantly induced apoptosis (Sub-G1 population) | arrested the G2/M phase cell cycle | significantly induced apoptosis (Sub-G1 population) |
| – | – | 232 to 233 | COC(=O)Nc1nc2cc(Sc3ccc(F)cc3)ccc2[nH]1 [Chemical Formula 1-1, methyl 5-(4-fluorophenyl-thio)-1H-benzo[d]imidazol-2-ylcarbamate] | – | – | – | – | – | – | – | – | – | – |
